From patent US7199162B1, “Use of treosulfan for patient conditioning before bone marrow or blood stem cell transplantation” (Medac Gesellschaft fur Klinische Spezialpraparate mbH, priority 1999, dated 2007)

What was measured:
[1] = pharmacokinetic properties after intravenous administration
[2] = non-haematological toxicity profile; conditions: general statement, in contrast to busulfan
water solubility = type: physicochemical
[3] = tested on: haematopoietic stem cells in the host bone marrow; experiment: cobblestone area forming cell assay (CAFC) on host bone marrow 24 hours after administration, murine bone-marrow transplantation model; type: in vivo; conditions: recipient mice (BG-Gpi-1b), 3×2500 mg/kg daily fractionation, CAFC 24 hours after administration
Protocol: The recipient mice (BG-Gpi-1^b) were treated with 3×2500 mg/kg or 7500 mg/kg (corresponding to 22.5 g/m^2) treosulfan or 50 mg/kg busulfan. 24 hours after administration the elimination of the different haematopoietic stem cells in the host bone marrow was ascertained using the in vitro cobblestone area forming cell assays (CAFC; cf. Ploemacher et al., Blood 78 (1991) 2527–2533).

[4] = tested on: donor-type chimerism in the recipient; experiment: H-2-compatible allogenic bone-marrow transplantation trial (C.B10→B6); type: in vivo, mice; conditions: substance alone, treosulfan in fractionated doses
Protocol: Treosulfan administered in fractionated doses was also evaluated in an H-2-compatible allogenic bone-marrow transplantation trial (C.B10→B6). In this trial, an immunological reaction resulting in rejection of the transplant must be prevented by conditioning with e.g. treosulfan, before growth of the transplant is possible.

| water-solubility (water solubility) | SMILES | pharmacokinetic properties [1] | non-haematological toxicity (liver, kidney, CNS, lung) [2] | elimination of both the primitive and the "committed" progenitor cells [3] | induction of donor-type chimerism / conditioning before allogenic bone-marrow transplantation [4] |
| --- | --- | --- | --- | --- | --- |
| consistent high water-solubility | CS(=O)(=O)OC[C@H](O)[C@@H](O)COS(C)(=O)=O [treosulfan[…]] | reliable and linear pharmacokinetic properties | no significant liver, kidney, CNS or lung toxicity | 3 to 5 powers of ten | almost complete and stable donor-type chimerism |
| low solubility | CS(=O)(=O)OCCCCOS(C)(=O)=O [busulfan] | – | – | – | unable to bring about effective conditioning |
